In patent US20230002774A1, “METHODS AND COMPOSTIONS FOR INHIBITING CORONAVIRAL REPLICATION” (California Institute of Technology, priority 2021, published 2023):
Like-named read-outs stand apart in the source and are kept apart here.

How the values were obtained:
[1] = test system: HCoV-229E; format: cell-based
[2] = test system: HCoV-OC43; format: cell-based; design: HCoV-OC43 viral RNA level reduced: dose or concentration left out as unconfirmed; conditions: CB-5083 until 8 hpi, harvested 24 hpi
[3] = test system: HCoV-229E; test: Titer of secreted virus in culture media by TCID50 in H1299 cells, HCoV-229E; format: cell-based
[4] = test system: HCoV-OC43; test: Titer of secreted virus in culture media by TCID50 in H1299 cells, HCoV-OC43; format: cell-based
[5] = test system: HCoV-229E; test: Stage-limited inhibition assay, viral RNA at 8 hpi, HCoV-229E in H1299 cells; format: cell-based; design: dose or concentration left out as unconfirmed
Protocol: (§1) Total cell RNA was extracted using the MagMAX mirVana Total RNA Isolation Kit (Thermo Fisher Scientific) with KingFisher systems (Thermo Fisher Scientific). RNA was quantified using NanoDrop Lite Spectrophotometer (Thermo Fisher Scientific). Total RNA ([…]) was reverse transcribed using the High-Capacity cDNA Reverse Transcription Kit (Thermo Fisher Scientific). cDNA samples were used for quantitative TagMan PCR using TaqMan™ Universal Master Mix II, no UNG (Thermo Fisher Scientific), in an QuantStudio™ 5 System (Thermo Fisher Scientific). FAM-MGB-labeled TaqMan probes for the indicated genes were purchased from Thermo Fisher Scientific. The resulting data were analyzed using Excel and GraphPad Prism 8.
(§2) H1299 cells were treated with 0.1% DMSO, […] CB-5083, or […] of NMS-873 from 30 min prior to virus infection until 8 h post-infection. […] Cells were collected at 8 hpi for viral RNA determination.

[6] = test system: HCoV-OC43; test: Stage-limited inhibition assay, viral RNA at 8 hpi, HCoV-OC43 in H1299 cells; format: cell-based; conditions: for viral RNA levels vs vehicle control, inhibitors throughout the experiment (group 2): 1 mM CB-5083 or 2 mM NMS-873, 30 min before infection to 8 hpi, harvested 8 hpi; for viral RNA levels, early treatment (group 3: pretreatment to 0 hpi): 1 mM CB-5083 or 2 mM NMS-873, harvested 8 hpi
Protocol: as §1, §2

[7] = test system: HCoV-229E
[8] = test system: HCoV-OC43; conditions: HCoV-OC43, CB-5083 0.5 mM, 8 hpi
Protocol: Cells were fixed with cold 4% paraformaldehyde for 15 min followed by permeabilization/blocking with 10% FBS and 0.2% Triton X-100 for another 1 h. Cells were stained with mouse anti-dsRNA antibody clone rJ2 (1:50) (Sigma-Aldrich, MABE1134) followed by labeling with anti-mouse mouse secondary antibody conjugated to Alexa-488 (Thermo Fisher Scientific). Nuclei were stained with Hoechst. Fluorescent images were acquired using Thermo Scientific™ Invitrogen™ EVOS™ FL Auto 2 Imaging System.
Cells were treated with the indicated concentration of CB-5083 and infected with virus. After 1 h of infection, cells were washed three times with serum-free media and then returned to media containing 2% FBS and the same concentration of CB-5083.

[9] = test system: HCoV-infected H1299 cells; conditions: CB-5083 0.5 mM until 8 hpi, viability at 72 hpi
Protocol: (§3) Cells were seeded using 2×10^5 cells per well in 96-well plates and incubated overnight at 37° C. Cells were treated with the indicated concentration of CB-5083 and infected with virus or mock infected. After 1 h of infection, cells were washed three times with serum-free media and then cultured with media containing 10% FBS and the same concentration of CB-5083. Cultured media was replaced with fresh media at 8 hpi. At 72 hpi, cell viability was measured by CellTiter-Glo® Luminescent Cell Viability Assay (Promega).

[10] = test system: H1299 cells; conditions: cell viability at 72 hpi, normalized to mock-infected DMSO-treated control
Protocol: as §3

## Cc1cc2c(C(N)=O)cccc2n1-c1nc2c(c(NCc3ccccc3)n1)COCC2 [CB-5083]
[1]
  HCoV-229E viral RNA level reduced: about 47%
  HCoV-229E viral RNA level, effect of different doses: reduced by CB-5083 in a dose-dependent manner
[2]
  HCoV-OC43 viral RNA level reduced: about 40%
  HCoV-OC43 viral RNA level, effect of different doses: reduced by CB-5083 in a dose-dependent manner
[3]
  viral titer of secreted HCoV-229E decreased: ~81%
[4]
  viral titer of secreted HCoV-OC43 decreased: ~85%
[5]
  viral RNA levels vs vehicle control, inhibitors throughout the experiment (group 2): Extensive reduction
  viral RNA levels, early treatment (group 3: pretreatment to 0 hpi): only minor or no effects
[6]
  viral RNA levels vs vehicle control, inhibitors throughout the experiment (group 2): Extensive reduction
  viral RNA levels, early treatment (group 3: pretreatment to 0 hpi): only minor or no effects
[7]
  dsRNA signals (immunostaining): lower dsRNA signals
[8]
  dsRNA signals (immunostaining): lower dsRNA signals
[9]
  cell viability increased compared to HCoV-infected and DMSO-treated control: ~29%
[10]
  toxicity of the tested concentrations to H1299 cells: non-toxic

## Cc1cc(OCc2nnc(SC3CCCC3)n2-c2cccnc2)ccc1-c1ccc(S(C)(=O)=O)cc1 [NMS-873, 3-[3-cyclopentylsulfanyl-5-[[3-methyl-4-(4-methylsulfonylphenyl)phenoxy]methyl]-1,2,4-triazol-4-yl]pyridine]
[5]; HCoV-229E, 30 min before infection to 8 hpi, harvested 8 hpi
  viral RNA levels vs vehicle control, inhibitors throughout the experiment (group 2): Extensive reduction
[5]; HCoV-229E, harvested 8 hpi
  viral RNA levels, early treatment (group 3: pretreatment to 0 hpi): only minor or no effects
[6]
  viral RNA levels vs vehicle control, inhibitors throughout the experiment (group 2): Extensive reduction
  viral RNA levels, early treatment (group 3: pretreatment to 0 hpi): only minor or no effects
